In patent USRE39352E1, “Creatine amidinohydrolase, production thereof and use thereof” (Toyo Boseki Kabushiki Kaisha, priority 1996, dated 2006):
Several values for one entry are separate records, joined by “and”; a condition that tells them apart may be missing. Identical values can stand only once.

What was measured:
[1] = tested on: creatine amidinohydrolase derived from bacteria belonging to the genus Corynebacterium; settings: Japanese Patent Examined Publication No. 76915/1991; cited from earlier work
[2] = tested on: creatine amidinohydrolase derived from bacteria belonging to the genus Actinobacillus; settings: Japanese Patent Examined Publication No. 76915/1991; cited from earlier work
[3] = tested on: Alcaligenes faecalis TE3581 (FERM P-14237) creatine amidinohydrolase, wild, SEQ ID NO: 1 (gene SEQ ID NO: 2); experiment: Km value for creatine, coupling assay using sarcosine oxidase and peroxidase (wild enzyme); type: biochemical; settings: coupling assay with sarcosine oxidase and peroxidase, pH 7.6, 37° C.
Text: While the gene encoding a wild creatine amidinohydrolase which is to be mutated is not particularly limited, in one embodiment of the present invention, it is the creatine amidinohydrolase gene depicted in the Sequence Listing•SEQ ID:No.2, which is derived from Alcaligenes•faecalis TE3581 (FERM P-14237).
In another embodiment of the present invention, a novel creatine amidinohydrolase having a smaller Km value for creatine than a wild creatine amidinohydrolase is produced by mutating the gene encoding the amino acid sequence depicted in the Sequence Listing•SEQ ID No:1. […]
In the Examples, the activity of creatine amidinohydrolase was determined as follows. […]
The above-mentioned reaction mixture (3 ml) is taken with a cuvette (d=1 cm) and preliminarily heated to 37° C. for about 3 minutes. […] Using water as a control, changes in absorbance at 500 nm are recorded for 5 minutes using a spectrophotometer controlled to 37° C. Based on the linear portion of 2-5 minutes thereof, changes in absorbance per minute are determined (ΔOD) test.
The blank test is performed in the same manner as above except that a solution (0.1 ml, 50 mM potassium phosphate buffer, pH 7.5) for diluting the enzyme is used instead of the enzyme solution and changes in absorbance per minute are determined (ΔOD blank).
The enzyme amount is calculated by inserting each measure into the following formula. […]

[4] = tested on: Alcaligenes faecalis TE3581 creatine amidinohydrolase mutant pCRH273M2 (FERM BP-5375), purified from Escherichia coli JM109 (pCRH273M2); experiment: Km value for creatine, coupling assay using sarcosine oxidase and peroxidase (mutant pCRH273M2); type: biochemical; settings: coupling assay with sarcosine oxidase and peroxidase, pH 7.6, 37° C.
[5] = tested on: Alcaligenes faecalis TE3581 creatine amidinohydrolase mutant pCRH273M3 (FERM BP-5376), purified from Escherichia coli JM109 (pCRH273M3); experiment: Km value for creatine, coupling assay using sarcosine oxidase and peroxidase (mutant pCRH273M3); type: biochemical; settings: coupling assay with sarcosine oxidase and peroxidase, pH 7.6, 37° C.
[6] = tested on: Pseudomonas putida creatine amidinohydrolase; settings: residual creatine determined with α-naphthol and diacetyl; Archives Biochemistry and Biophysics 177, 508-515 (1976); read-out: apparent Km value for creatine; cited from earlier work
[7] = tested on: Alcaligenes faecalis TE3581 creatine amidinohydrolase mutant pCRH273M1 (FERM BP-5374), purified from Escherichia coli JM109 (pCRH273M1); experiment: Km value for creatine, coupling assay using sarcosine oxidase and peroxidase (mutant pCRH273M1); type: biochemical; settings: coupling assay with sarcosine oxidase and peroxidase, pH 7.6, 37° C.
[8] = tested on: creatine amidinohydrolase produced by bacteria belonging to the genus Alcaligenes (Japanese Patent Unexamined Publication No. 63363/1994); settings: cited from earlier work
[9] = tested on: creatine amidinohydrolase derived from bacteria belonging to the genus Bacillus; settings: Japanese Patent Examined Publication No. 76915/1991; cited from earlier work
[10] = tested on: creatine amidinohydrolase derived from bacteria belonging to the genus Micrococcus; settings: Japanese Patent Examined Publication No. 76915/1991; cited from earlier work

For CN(CC(=O)O)C(=N)N [creatine], the Km [1] is listed as roughly 20 mM, the Km [2] is listed as roughly 20 mM and the Km [3] is listed as 15.2 mM. The Km [4] was ~4.5 mM and 4.5 mM, the Km [5] was ~9 mM and 9 mM and the Km [6] was 1.33 mM. The Km [7] was ~6.5 mM and 6.5 mM, the Km [8] was roughly 15.2 mM and the Km [9] was roughly 20 mM. For the same molecule, the Km [10] was roughly 20 mM.
